Reference: US4490370A, “Naphthylglycyl cephalosporin derivatives” (priority 1983, dated 1984)
Converted amounts (≈) assume the structure as drawn. Like-named read-outs stand apart in the source and are kept apart here.

What was measured:
[1] = test system: β-lactamase (organism 1082E); experiment: Stability to β-lactamases, 1082E; type: biochemical; settings: lower numbers mean greater stability
B. Fragilis = experiment: Expanded spectrum MIC, B. Fragilis; type: cell-based; settings: Bacteroides fragilis, Table III
Excerpt: (§1) A typical and preferred compound provided by this invention is 7-(2-naphthylglycylamido)-3-methyl-3-cephem-4-carboxylic acid, the compound of Example 3. The antibacterial activity of this compound and several others of the invention has been determined in standard in vitro agar dilution assays against a variety of gram positive microorganisms. The following Tables present typical minimum inhibitory concentrations (MIC's) in μg/ml for the compounds when evaluated against the indicated microorganisms. MIC's for several known compounds are also presented for comparison.

β-lactamase (TEM) = experiment: Stability to β-lactamases, TEM; type: biochemical; settings: lower numbers mean greater stability
Staph. aureus = experiment: Agar dilution MIC, Staph. aureus; type: cell-based; settings: Staphylococcus aureus
Excerpt: (§2) The following Tables present typical minimum inhibitory concentrations (MIC's) in μg/ml for the compounds when evaluated against the indicated microorganisms.

[2] = test system: β-lactamase (organism PS185); experiment: Stability to β-lactamases, PS185; type: biochemical; settings: lower numbers mean greater stability
H. influ. = experiment: Agar dilution MIC, H. influenza; type: cell-based; settings: read-out: MIC
Excerpt: as §2

[3] = test system: β-lactamase (organism 1313G); experiment: Stability to β-lactamases, 1313G; type: biochemical; settings: lower numbers mean greater stability
[4] = test system: β-lactamase (organism 265A); experiment: Stability to β-lactamases, 265A; type: biochemical; settings: lower numbers mean greater stability
Strep. PN = experiment: Agar dilution MIC, Strep. PN; type: cell-based; settings: Table I, strain PARK; read-out: MIC
Excerpt: as §2

Klebsiella = experiment: Agar dilution MIC, Klebsiella; type: cell-based; settings: Klebsiella
Excerpt: as §1

Strep. A = experiment: Agar dilution MIC, Strep. A; type: cell-based
Excerpt: as §1

Staph. epi = experiment: Agar dilution MIC, Staph. epi; type: cell-based
Excerpt: as §2

Propionibacterum acnes = experiment: Susceptibility of anaerobes, agar-dilution, 24 hour MIC; type: cell-based
Excerpt: as §1
(§3) Susceptibility of Anaerobic Cocci
(§4) Isolates by the Agar-Dilution
(§5) Method-24 hour MIC's (μg/ml)

[5] = test system: Peptostreptococcus intermedius; experiment: Susceptibility of anaerobic cocci, agar-dilution, 24 hour MIC; type: cell-based
Excerpt: as §1, §3, §4, §5

P. magnus = experiment: as above; type: cell-based; settings: Finegoldia magna
Excerpt: as §1, §3, §4, §5

Peptococcus Constellatus = experiment: as above; type: cell-based; settings: Streptococcus constellatus, isolate 1468
Excerpt: as §1, §3, §4, §5

[6] = test system: Peptococcus Asaccharolyticus; experiment: as above; type: cell-based; settings: Peptoniphilus asaccharolyticus, isolate 1344
Excerpt: as §1, §3, §4, §5

[7] = test system: Peptostreptococcus anaerobius; experiment: as above; type: cell-based
Excerpt: as §1, §3, §4, §5

P. prevoti = experiment: as above; type: cell-based; settings: isolate 1293
Excerpt: as §1, §3, §4, §5

Bacteroides fragilis = experiment: Susceptibility of anaerobes, agar-dilution, 24 hour MIC; type: cell-based
[8] = Table III, strain 8438, read-out: MIC
[9] = Table III, strain 9050, read-out: MIC
[10] = Table III, strain 9136, read-out: MIC

Q: `N[C@@H](C(=O)N[C@@H]1C(=O)N2C(C(=O)O)=C(Cl)CS[C@H]12)c1ccccc1` [Cefaclor, 7-phenylglycylamido-3-chloro-3-cephem-4-carboxylic acid, reference compound] was tested. Which “Stability to β-lactamases” value [1] did it give?
A: 65

Q: What about the MIC (B. Fragilis; strain 180-821) of the same molecule?
A: 64 µg/mL (≈ 174 µM)

Q: And the MIC (B. Fragilis; strain 10668)?
A: 64 µg/mL (≈ 174 µM)

Q: What about the MIC (B. Fragilis; strain 10683) of the same molecule?
A: 16 µg/mL (≈ 43.5 µM)

Q: And the MIC (B. Fragilis; strain 10695)?
A: 32 µg/mL (≈ 87 µM)

Q: And the MIC (B. Fragilis; strain 10750)?
A: > 64 µg/mL

Q: What about the MIC (B. Fragilis; strain 10774) of the same molecule?
A: > 64 µg/mL

Q: And the MIC (B. Fragilis; strain 10817)?
A: 64 µg/mL (≈ 174 µM)

Q: And the MIC (B. Fragilis; strain 10837)?
A: > 64 µg/mL

Q: What about the MIC (B. Fragilis; strain 107266) of the same molecule?
A: 16 µg/mL (≈ 43.5 µM)

Q: And the MIC (B. Fragilis; strain 107268)?
A: 16 µg/mL (≈ 43.5 µM)

Q: And the “Stability to β-lactamases” value (β-lactamase (TEM))?
A: 23

Q: And the MIC (Staph. aureus; [8])?
A: 1 µg/mL (≈ 2.72 µM)

Q: What about the MIC (Staph. aureus; [9]) of the same molecule?
A: 2 µg/mL (≈ 5.44 µM)

Q: What about the MIC (Staph. aureus; [10]) of the same molecule?
A: 2 µg/mL (≈ 5.44 µM)

Q: And the MIC (Staph. aureus; Table III, strain 9290, read-out: MIC)?
A: 8 µg/mL (≈ 21.8 µM)

Q: What about the MIC (Staph. aureus; Table III, strain 9767, read-out: MIC) of the same molecule?
A: 2 µg/mL (≈ 5.44 µM)

Q: And the “Stability to β-lactamases” value [2]?
A: 71

Q: And the MIC (H. influ.; Table III, strain 101)?
A: 2 µg/mL (≈ 5.44 µM)

Q: And the MIC (H. influ.; Table III, strain 102)?
A: 16 µg/mL (≈ 43.5 µM)

Q: And the MIC (H. influ.; Table III, strain 103)?
A: 2 µg/mL (≈ 5.44 µM)

Q: And the MIC (H. influ.; Table III, strain 104)?
A: 1 µg/mL (≈ 2.72 µM)

Q: What about the MIC (H. influ.; Table III, strain 105) of the same molecule?
A: 1 µg/mL (≈ 2.72 µM)

Q: What about the MIC (H. influ.; Table III, strain 106) of the same molecule?
A: 2 µg/mL (≈ 5.44 µM)

Q: What about the MIC (H. influ.; Table III, strain 107) of the same molecule?
A: 2 µg/mL (≈ 5.44 µM)

Q: What about the MIC (H. influ.; Table III, strain 108) of the same molecule?
A: 1 µg/mL (≈ 2.72 µM)

Q: And the MIC (H. influ.; Table III, strain 109)?
A: 2 µg/mL (≈ 5.44 µM)

Q: What about the MIC (H. influ.; Table III, strain 110) of the same molecule?
A: 1 µg/mL (≈ 2.72 µM)

Q: And the MIC (H. influ.; Table III, strain 111)?
A: 1 µg/mL (≈ 2.72 µM)

Q: And the “Stability to β-lactamases” value [3]?
A: 4605

Q: What about the “Stability to β-lactamases” value [4] of the same molecule?
A: 138

Q: What does the source list for `CC1=C(C(=O)O)N2C(=O)[C@@H](NC(=O)[C@H](N)c3ccccc3)[C@H]2SC1` [Cephalexin, reference compound]?
A: MIC (Strep. PN): 2 µg/mL (≈ 5.76 µM); MIC (B. Fragilis; strain 180-821, read-out: MIC): 16 µg/mL (≈ 46.1 µM); MIC (B. Fragilis; strain 10668, read-out: MIC): > 64 µg/mL; MIC (B. Fragilis; strain 10683, read-out: MIC): > 64 µg/mL; MIC (B. Fragilis; strain 10695, read-out: MIC): 64 µg/mL (≈ 184 µM); MIC (B. Fragilis; strain 10750, read-out: MIC): 64 µg/mL (≈ 184 µM); MIC (B. Fragilis; strain 10774, read-out: MIC): > 64 µg/mL; MIC (B. Fragilis; strain 10817, read-out: MIC): 16 µg/mL (≈ 46.1 µM); MIC (B. Fragilis; strain 10837, read-out: MIC): 16 µg/mL (≈ 46.1 µM); MIC (B. Fragilis; strain 107266, read-out: MIC): 32 µg/mL (≈ 92.1 µM); MIC (B. Fragilis; strain 107268, read-out: MIC): 16 µg/mL (≈ 46.1 µM); MIC (Klebsiella): 4 µg/mL (≈ 11.5 µM); MIC (Strep. A): 0.5 µg/mL (≈ 1.44 µM); MIC (Staph. aureus; Table I, strain S13E): 128 µg/mL (≈ 368 µM); MIC (Staph. aureus; Table III expanded spectrum, strain 8725, read-out: MIC): 2 µg/mL (≈ 5.76 µM); MIC (Staph. aureus; [8]): 1 µg/mL (≈ 2.88 µM); MIC (Staph. aureus; Table III, strain 8787, read-out: MIC): 1 µg/mL (≈ 2.88 µM); MIC (Staph. aureus; [9]): 2 µg/mL (≈ 5.76 µM); MIC (Staph. aureus; [10]): 2 µg/mL (≈ 5.76 µM); MIC (Staph. epi): 8 µg/mL (≈ 23 µM); MIC (Staph. epi; Table I, strain EPI1, read-out: MIC): 32 µg/mL (≈ 92.1 µM); MIC (H. influ.; Table I, strain 251): 8 µg/mL (≈ 23 µM); MIC (H. influ.; Table I, strain BRUN): 8 µg/mL (≈ 23 µM); MIC (H. influ.; Table III, strain 101): 8 µg/mL (≈ 23 µM); MIC (H. influ.; Table III, strain 102): 16 µg/mL (≈ 46.1 µM); MIC (H. influ.; Table III, strain 103): 16 µg/mL (≈ 46.1 µM); MIC (H. influ.; Table III, strain 104): 16 µg/mL (≈ 46.1 µM); MIC (H. influ.; Table III, strain 105): 4 µg/mL (≈ 11.5 µM); MIC (H. influ.; Table III, strain 106): 8 µg/mL (≈ 23 µM); MIC (H. influ.; Table III, strain 107): 8 µg/mL (≈ 23 µM); MIC (H. influ.; Table III, strain 108): 8 µg/mL (≈ 23 µM); MIC (H. influ.; Table III, strain 109): 16 µg/mL (≈ 46.1 µM); MIC (H. influ.; Table III, strain 110): 8 µg/mL (≈ 23 µM); MIC (H. influ.; Table III, strain 111): 16 µg/mL (≈ 46.1 µM)

Q: What does the source list for `CO[C@@]1(NC(=O)Cc2cccs2)C(=O)N2C(C(=O)O)=C(COC(N)=O)CS[C@@H]21` [Cefoxitin, reference compound]?
A: MIC (Propionibacterum acnes; isolate 44): 2 µg/mL (≈ 4.68 µM); MIC (Propionibacterum acnes; isolate 79): 8 µg/mL (≈ 18.7 µM); MIC (Propionibacterum acnes; isolate 101): 4 µg/mL (≈ 9.36 µM); MIC (Propionibacterum acnes; isolate 104): 4 µg/mL (≈ 9.36 µM); MIC (Propionibacterum acnes; isolate 105): 2 µg/mL (≈ 4.68 µM); MIC (Propionibacterum acnes; isolate 5191): ≤ 0.06 µg/mL; MIC (Propionibacterum acnes; isolate 5227): 2 µg/mL (≈ 4.68 µM); MIC (Propionibacterum acnes; isolate 5228): 4 µg/mL (≈ 9.36 µM); MIC (Propionibacterum acnes; isolate 5229): 2 µg/mL (≈ 4.68 µM); MIC (Propionibacterum acnes; isolate 5246): 4 µg/mL (≈ 9.36 µM); MIC ([5]; isolate 1264): 1 µg/mL (≈ 2.34 µM); MIC ([5]; isolate 1524): 4 µg/mL (≈ 9.36 µM); MIC ([5]; isolate 1624): 4 µg/mL (≈ 9.36 µM); MIC (P. magnus; isolate 1401): 2 µg/mL (≈ 4.68 µM); MIC (P. magnus; isolate 1477): 0.5 µg/mL (≈ 1.17 µM); MIC (Peptococcus Constellatus): 8 µg/mL (≈ 18.7 µM); MIC [6]: 0.25 µg/mL (≈ 0.585 µM); MIC ([7]; isolate 8): 0.25 µg/mL (≈ 0.585 µM); MIC ([7]; isolate 52): 2 µg/mL (≈ 4.68 µM); MIC ([7]; isolate 1477): 1 µg/mL (≈ 2.34 µM); MIC (P. prevoti): 1 µg/mL (≈ 2.34 µM); MIC (Bacteroides fragilis; isolate 200): 8 µg/mL (≈ 18.7 µM); MIC (Bacteroides fragilis; isolate 206): 16 µg/mL (≈ 37.4 µM); MIC (Bacteroides fragilis; isolate 3625): 16 µg/mL (≈ 37.4 µM); MIC (Bacteroides fragilis; isolate 7371A): 8 µg/mL (≈ 18.7 µM); MIC (Bacteroides fragilis; isolate 19671): 16 µg/mL (≈ 37.4 µM); MIC (Bacteroides fragilis; isolate 19681): 32 µg/mL (≈ 74.9 µM)
